{"source": "patent US20090305994A1", "about": "“Compounds Modulating Vegf Receptor and Uses Thereof” (priority 2005, published 2009)", "key": {"HUVEC": {"system": "HUVEC", "experiment": "Analysis of caspase 3 activity in HUVEC deprived of FBS", "assay_type": "cell-based, human", "conditions": "4 h", "procedure": "HUVE cells (1×10^4/cm2) were incubated in medium without FBS, in the absence or presence of VEGF (20 ng/ml) and QK (5 ng/ml), at 37° C. in a 5% CO2 atmosphere. After 4 h, caspase 3 activity was determined. Results are expressed as mean values of triplicates.\nHUVE cells (1×10^4/cm2) were incubated in medium without FBS, in the absence or presence of VEGF (20 ng/ml) and the indicated peptides (20 ng/ml), at 37° C. in a 5% CO2 atmosphere. After 4 h, caspase 3 activity was determined. Results are expressed as mean values of triplicates.\n(§1) Analysis of caspase 3 activity—Cells (2×104) were lysed in a buffer containing Hepes 50 mM, DTT 1 mM, EDTA 0.1 mM, NP-40 0.1%, CHAPS 0.1% and protein quantitation determined. Protein aliquots (20 μg) were incubated with 20 μM Ac-DEVD-AMC (Pharmingen, San Diego, Calif.) in a buffer containing Hepes 50 mM, DTT 1 mM, EDTA 0.1 mM, NP-40 0.1%, CHAPS 0.1%, at 37° C. for 3 h. Caspase 3 activity was determined in the cytosolic extracts by analysing the release of 7-amino-4-methylcoumarin (AMC) from N-acetyl-DEVD-AMC (Thornberry N A, et al. Nature 1992; 356:768-74); the release of AMC was monitored in a spectrofluorometer with an excitation wavelength of 380 nm and emission wavelength of 440 nm.\nas §1, with “356: 768-74);” for “356:768-74);”"}, "BAEC": {"system": "BAEC", "experiment": "[3H]-thymidine incorporation (DNA synthesis)", "assay_type": "cell-based, bovine", "conditions": "24 hours", "procedure": "Effect of QK on cell proliferation. a) DNA synthesis. BAEC were incubated in DMEM with [^3H]-thymidine and QK in absence or in presence of VEGF165 (100 ng/ml). After 24 hours cells were fixed and lysed. Scintillation liquid was added and [^3H]-thymidine incorporation was evaluated. b) Cell proliferation. BAEC were stimulated with the indicated amount of QK in absence or in presence of VEGF165 (100 ng/ml). Cell number was determined at 24 hours after stimulation. c) RB phosphorylation. p-RB was evaluated at 12 and 18 hours after stimulation with QK (10^-6M), VEGF165 (100 ng/ml) and VEGF 15 (10^−6 M).\n[^3H]-thymidine incorporation. Cells were serum starved for 24 hours and then incubated in DMEM with [^3H]-thymidine (Amersham) and QK alone (10^−12-10^−6 M) or with a combination of QK and VEGF165. After 24 hours cells were fixed with trichloracetic acid ([…]) and dissolved in NaOH 1M. Scintillation liquid was added and thymidine incorporation was evaluated with a beta counter."}, "WKY rats": {"system": "WKY rats", "experiment": "Ischemic hindlimb model, digital angiographies and blood flow determination", "assay_type": "in vivo, rat", "conditions": "14 days"}}, "data": [{"sequence": "KLTWQELYQLKYKGI [QK]", "values": [{"measurement": "rescue from apoptosis in presence of VEGF (caspase 3)", "setting": "HUVEC; QK 5 ng/ml with VEGF 20 ng/ml", "value": "enhanced the response of HUVEC to VEGF"}, {"measurement": "rescue of HUVEC from apoptosis (caspase 3 activation)", "setting": "HUVEC; VEGF 20 ng/ml, QK 5 ng/ml", "value": "showed a biological effect similar to VEGF"}, {"measurement": "DNA synthesis ([3H]-thymidine incorporation)", "setting": "BAEC; peptide alone", "value": "increased DNA synthesis at any dosages"}, {"measurement": "DNA synthesis in presence of VEGF", "setting": "BAEC; with VEGF165 100 ng/ml", "value": "the effect was enhanced in presence of VEGF"}, {"measurement": "BEADS Ischemic to non ischemic", "setting": "WKY rats; dyed beads dilution, muscle ratio, infusion 10^-7 M", "value": "0.98 ± 0.12"}, {"measurement": "ANGIOGRAPHY Number of TFC", "setting": "WKY rats; ischemic hindlimb, chronic intrafemoral artery infusion 10^-7 M", "value": "16 ± 2"}]}]}
